What all share (assay type): biochemical
For test [1], the target named is T1, KDM4E (Homo sapiens, UniProt B2RXH2).
T1 construct: His6 (N); made in house; host or cells: Escherichia coli
T1 sequence (B2RXH2 1-337): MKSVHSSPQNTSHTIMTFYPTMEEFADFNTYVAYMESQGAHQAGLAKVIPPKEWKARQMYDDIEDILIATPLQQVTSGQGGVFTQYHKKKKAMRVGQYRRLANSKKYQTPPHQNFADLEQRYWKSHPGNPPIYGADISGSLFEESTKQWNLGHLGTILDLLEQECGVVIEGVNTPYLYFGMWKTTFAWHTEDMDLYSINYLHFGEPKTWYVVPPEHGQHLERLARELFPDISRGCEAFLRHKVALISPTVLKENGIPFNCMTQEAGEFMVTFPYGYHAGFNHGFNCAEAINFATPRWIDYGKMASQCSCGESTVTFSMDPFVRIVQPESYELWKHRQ
Description: Formaldehyde dehydrogenase-coupled demethylation assay, KDM4E. The note with it: for kcat/KM: KDM4E; for kcat / Km: KDM4E catalytic domain, apparent, preliminary, 37 °C, mean±s.e.m., n=3; for kcat: FDH/NAD+-coupled assay; for Km: FDH/NAD+-coupled formaldehyde assay, 2OG 200 μM, Fe(II) 10 μM, ascorbate 100 μM. On the procedure:
(§1) Formaldehyde dehydrogenase-coupled assays. Preliminary kinetic parameters were determined by detection of the formaldehyde by-product of the demethylation reaction using a FDH (formaldehyde dehydrogenase-coupled)/NAD^+-coupled assay as previously described. Assays were carried out in buffer (enzyme-dependent) with the addition of Fe(II) ammonium sulfate (10 μM), sodium ascorbate (100 μM), 2OG (200 μM), NAD^+ (500 μM), enzyme (0.2–4 μM) and FDH enzyme (0.025 U per assay, Sigma-Aldrich; total volume 30 μl) and were conducted at 37 °C in clear-bottom black 384-well plates. […] The Km and Vmax values were calculated from the reaction rate during the linear phase of formaldehyde production, as determined by the slope of the fluorescence signal recorded.

Test [2] deals with T2, KDM6B (Homo sapiens, UniProt O15054).
T2 construct: His6 (N); made in house; host or cells: Escherichia coli
Nature of the test: MALDI MS activity assay, recombinant KDM6B catalytic domain. The note with it: KDM6B 2 μM, peptide 10 μM, 1 h, 37 °C, 2OG 100 μM, ascorbate 100 μM, Fe(II) 10 μM, 50 mM HEPES pH 7.5, 150 mM NaCl; MALDI-TOF MS, −14 Da shift. On the procedure:
(§2) MALDI MS activity assays. Recombinant proteins (2 μM) were incubated with peptides (10 μM, sequences are given in Supplementary Table 1) and cofactors/substrates for 1 h at 37 °C, unless otherwise specified. Reactions were quenched with 1:1 (v/v) methanol and analysed with MALDI MS. Assay conditions for each enzyme are given in Supplementary Table 2. Negative controls without enzyme were included.
(§3) Supplementary Table 2 Assay conditions with truncated recombinant protein.
(§4) Supplementary Table 3 Assay conditions with full length Flag-tagged KDMs.

The target in test [3] is T1, KDM4E. Description: MALDI MS activity assay, recombinant KDM4E catalytic domain. The note with it: peptide 10 μM, 1 h, 37 °C, MALDI-TOF MS; for observed arginine demethylation activity: KDM4E 2 μM, 2OG 200 μM, ascorbate 100 μM, Fe(II) 10 μM, 50 mM HEPES pH 7.5, −14 Da shift. How it is done: as §2
(§5) Supplementary Table 2 Assay conditions with truncated recombinant protein. […]

Test [4] concerns the target T3, KDM5C (Homo sapiens, UniProt P41229).
T3 construct: KDM5C1–765 was produced as an N-terminally His6-tagged protein in Sf9 cells; His6 (N); made in house; host or cells: Sf9 cells (provided by the Structural Genomics Consortium)
T3 sequence (P41229 1-765): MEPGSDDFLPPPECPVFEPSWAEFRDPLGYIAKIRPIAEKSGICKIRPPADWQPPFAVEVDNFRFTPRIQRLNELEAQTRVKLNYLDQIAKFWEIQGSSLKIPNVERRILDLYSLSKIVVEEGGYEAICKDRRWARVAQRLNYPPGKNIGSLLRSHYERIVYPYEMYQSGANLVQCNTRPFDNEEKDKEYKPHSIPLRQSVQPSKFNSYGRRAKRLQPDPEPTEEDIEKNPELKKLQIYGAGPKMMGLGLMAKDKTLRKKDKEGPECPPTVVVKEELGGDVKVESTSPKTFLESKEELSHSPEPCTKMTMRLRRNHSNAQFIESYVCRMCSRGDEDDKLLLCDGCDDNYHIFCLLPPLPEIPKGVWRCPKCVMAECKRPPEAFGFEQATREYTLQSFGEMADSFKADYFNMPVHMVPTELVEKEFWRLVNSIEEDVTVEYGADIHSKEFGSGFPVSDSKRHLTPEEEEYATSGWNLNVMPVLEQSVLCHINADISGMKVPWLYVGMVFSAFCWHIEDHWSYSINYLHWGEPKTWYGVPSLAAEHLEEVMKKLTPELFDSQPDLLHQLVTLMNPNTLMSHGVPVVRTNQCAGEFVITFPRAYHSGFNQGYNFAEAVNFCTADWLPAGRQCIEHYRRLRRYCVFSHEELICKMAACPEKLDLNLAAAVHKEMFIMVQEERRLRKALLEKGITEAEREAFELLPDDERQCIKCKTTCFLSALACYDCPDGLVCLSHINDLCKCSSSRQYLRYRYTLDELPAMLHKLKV
Description: MALDI MS activity assay, recombinant KDM5C catalytic domain. The note with it: peptide 10 μM, 1 h, 37 °C, MALDI-TOF MS; for observed arginine demethylation activity: KDM5C 2 μM, 2OG 100 μM, ascorbate 100 μM, Fe(II) 10 μM, 50 mM HEPES pH 7.5, −14 Da shift. How it is done: as §2, §5

Test [5] addresses T3, KDM5C. Description: Formaldehyde dehydrogenase-coupled demethylation assay, KDM5C. How it is done: as §1
For another test, the target named is T4, KDM3A (Homo sapiens, UniProt Q9Y4C1).
T4 construct: KDM3A515–1,317; His6 (N); made in house; host or cells: Sf9 cells
T4 sequence (Q9Y4C1 515-1317 limits assumed): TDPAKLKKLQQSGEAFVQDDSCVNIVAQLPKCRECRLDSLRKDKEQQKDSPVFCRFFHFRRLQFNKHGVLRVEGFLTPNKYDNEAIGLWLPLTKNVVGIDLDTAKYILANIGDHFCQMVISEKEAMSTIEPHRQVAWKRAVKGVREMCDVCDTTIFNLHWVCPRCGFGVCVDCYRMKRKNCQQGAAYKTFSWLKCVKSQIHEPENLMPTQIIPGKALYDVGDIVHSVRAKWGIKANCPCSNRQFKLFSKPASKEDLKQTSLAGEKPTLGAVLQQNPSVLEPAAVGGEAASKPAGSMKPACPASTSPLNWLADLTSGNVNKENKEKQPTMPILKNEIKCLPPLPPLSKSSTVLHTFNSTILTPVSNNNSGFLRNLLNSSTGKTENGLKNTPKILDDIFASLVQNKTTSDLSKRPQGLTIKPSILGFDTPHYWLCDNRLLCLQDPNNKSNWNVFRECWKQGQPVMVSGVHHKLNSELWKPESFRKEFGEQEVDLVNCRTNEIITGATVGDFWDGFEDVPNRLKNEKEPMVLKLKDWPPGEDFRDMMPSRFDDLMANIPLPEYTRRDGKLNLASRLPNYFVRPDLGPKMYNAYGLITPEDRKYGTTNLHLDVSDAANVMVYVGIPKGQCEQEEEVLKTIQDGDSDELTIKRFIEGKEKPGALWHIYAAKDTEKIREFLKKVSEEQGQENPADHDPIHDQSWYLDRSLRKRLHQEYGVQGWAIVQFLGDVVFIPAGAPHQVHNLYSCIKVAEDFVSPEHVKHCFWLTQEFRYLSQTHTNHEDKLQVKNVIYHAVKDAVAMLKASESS
Nature of the test: MALDI MS activity assay, recombinant KDM3A catalytic domain. The note with it: KDM3A 2 μM, peptide 10 μM, 1 h, 37 °C, 2OG 100 μM, ascorbate 100 μM, Fe(II) 50 μM, 50 mM HEPES pH 7.5; MALDI-TOF MS, −14 Da shift. How it is done: as §2, §3, §4

The target of test [6] is T2, KDM6B. Nature of the test: Formaldehyde dehydrogenase-coupled demethylation assay, KDM6B. How it is done: as §1
Where [7] appears, read: calculated from the average kcat and KM values, μM^−1 s^−1 for this quantity.

T2 sequence (O15054 1141-1590 limits assumed): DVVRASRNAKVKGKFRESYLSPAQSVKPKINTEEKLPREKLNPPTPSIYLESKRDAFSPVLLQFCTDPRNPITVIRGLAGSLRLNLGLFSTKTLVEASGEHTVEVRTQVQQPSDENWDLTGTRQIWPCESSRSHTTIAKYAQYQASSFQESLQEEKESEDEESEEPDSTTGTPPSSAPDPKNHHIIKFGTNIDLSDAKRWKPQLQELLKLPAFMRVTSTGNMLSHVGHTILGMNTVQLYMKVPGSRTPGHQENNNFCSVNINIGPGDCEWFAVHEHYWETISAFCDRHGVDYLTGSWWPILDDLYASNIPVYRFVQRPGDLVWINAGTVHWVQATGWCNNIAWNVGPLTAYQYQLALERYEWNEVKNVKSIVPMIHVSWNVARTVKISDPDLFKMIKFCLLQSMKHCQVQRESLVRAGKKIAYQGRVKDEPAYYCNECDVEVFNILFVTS

The term kcat/KM denotes the second-order rate constant that governs catalysis at low substrate concentration. The Km is the concentration of substrate that gives half-maximal velocity. For the substance “A-Rme2a-TKQTARKSTGGKA [H3(1-15)R2me2a, 'natural' histone H3 peptide asymmetrically dimethylated at R2]”, the kcat/KM was 0.000114 µM⁻¹ s⁻¹ on KDM4E [1]; 114.0 × 10^−6 at KDM4E [1] (setting [7]); 630.0 × 10^−6 at KDM5C [5] (KDM5C, calculated from the average kcat and KM values, μM^−1 s^−1 for this quantity). Further, the kcat at KDM4E [1] is recorded as 9.9±1.0 × 10^−3 s^−1; at KDM5C [5] (KDM5C catalytic domain, apparent, preliminary, FDH/NAD+-coupled assay, 37 °C, mean±s.e.m., n=3), 12.0±0.7 × 10^−3 s^−1. For the same substance, the Km at KDM4E [1] is 86.9 ± 16.5 µM; on KDM5C [5] (KDM5C catalytic domain, apparent, preliminary, FDH/NAD+-coupled formaldehyde assay, 37 °C, 2OG 200 μM, Fe(II) 10 μM, ascorbate 100 μM, mean±s.e.m., n=3), 19 ± 1.9 µM. Also, the “observed arginine demethylation activity” value on KDM6B [2] was “−”; on KDM4E [3], “+”; on KDM5C [4], “+”; on KDM3A, “−”. Moreover, the “demethylation, in words” value on KDM4E [3] (KDM4E catalytic domain 2 μM) and at KDM5C [4] (KDM5C catalytic domain 2 μM) was “relatively good RDM substrate” in each case. Further, on KDM5C [5] (KDM5C), the “kcat/KM, times lower than that for H3K4me3” value was determined as 14 times.

Regarding “H3(14-34)K27me3: 21-residue recognized histone H3 N-methylated-lysine peptide substrate for KDM6B”, in the test with KDM6B [6] (KDM6B catalytic domain, apparent, preliminary, FDH/NAD+-coupled assay, 37 °C, mean±s.e.m., n=3), the kcat was 11.7±0.1 × 10^−3 s^−1. Further, the Km in the test with KDM6B [6] (KDM6B catalytic domain, apparent, preliminary, FDH/NAD+-coupled formaldehyde assay, 37 °C, 2OG 200 μM, Fe(II) 10 μM, ascorbate 100 μM, mean±s.e.m., n=3) stood at 6.7 ± 0.6 µM. Besides, in the test with KDM6B [6] (KDM6B, calculated from the average kcat and KM values), the kcat/KM was 1,750.0 × 10^−6.

Turning to “KQLATKAA-Rme2a-KSAPAT [H3 (18–32) R26me2a, 'natural' histone H3 peptide asymmetrically dimethylated at R26]”, the “observed arginine demethylation activity” value on KDM6B [2] is recorded as “−”; at KDM4E [3], “+”; at KDM5C [4], “−”; at KDM3A, “−”.

As for “KQLATKAA-Rme-KSAPAT [H3 (18–32) R26me, 'natural' histone H3 peptide monomethylated at R26]”, the “observed arginine demethylation activity” value at KDM6B [2] is “−”; on KDM4E [3] it was “+”; on KDM5C [4], “−”; on KDM3A, “−”.

For “SG-Rme2a-GKGGKGLGKGGA [H4(1-15)R3me2a, 'natural' histone H4 residues 1-15 peptide asymmetrically dimethylated at R3]”, at KDM4E [1], the kcat is on record as 2.1±0.1 × 10^−3 s^−1. For the same substance, on KDM4E [1], the Km is 122 ± 10.1 µM. For the same substance, the kcat/KM at KDM4E [1] (setting [7]) is listed as 17.7 × 10^−6. Moreover, the “observed arginine demethylation activity” value is on record as “−” on KDM6B [2], “+” on KDM4E [3], “+” at KDM5C [4] and “−” on KDM3A.

“SG-Rme2s-GKGGKGLGKGGA [H4 (1–15) R3me2s, 'natural' histone H4 residues 1-15 peptide symmetrically dimethylated at R3]”: the “observed arginine demethylation activity” value on KDM6B [2] is given as “−”; on KDM4E [3] it was “+”; on KDM5C [4], “−”; on KDM3A it was “−”.

As for “SG-Rme-GKGGKGLGKGGAK [H4 (1–15) R3me, 'natural' histone H4 peptide monomethylated at R3]”, the “observed arginine demethylation activity” value on KDM6B [2], at KDM4E [3], at KDM5C [4] and at KDM3A was “−” each time.

As to “STGGKAP-Rme2a-KQLATKA [H3 (10–24) R17me2a, 'natural' histone H3 peptide asymmetrically dimethylated at R17]”, the “observed arginine demethylation activity” value on KDM6B [2], at KDM4E [3], at KDM5C [4] and at KDM3A was “−” each time.

Turning to “STGGKAP-Rme-KQLATKA [H3 (10–24) R17me, 'natural' histone H3 peptide monomethylated at R17]”, the “observed arginine demethylation activity” value at KDM6B [2], on KDM4E [3], on KDM5C [4] and at KDM3A was “−” in each case.

Source of the values: article PMC4931022, “Arginine demethylation is catalysed by a subset of JmjC histone lysine demethylases” (Nature Communications, 2016).
